Assays:
[1] = system: CDAHFD induced late stage NAFLD/NASH in mice; assay: Rescue effect of TOFA in CDAHFD induced late-stage NAFLD/NASH progression; type: in vivo, C57BL/6 male mice; details: 250 mg/kg daily, four weeks
Procedure: (§1) Six-week-old C57BL/6 male mice were fed with a L-Amino Acid Diet With 60 kcal % Fat With 0.1% Methionine and No Added Choline (Research Diets A06071302i) for eight weeks before introduction of either vehicle (control) or 250 mg/kg of TOFA daily via twice daily controlled oral gavage for an additional four weeks (FIG. 3A). Upon study termination at 12 weeks, serum and liver samples were collected. Serum liver damage biomarkers, ALT and AST, were measured by commercially available kits (abcam105134 and abcam 105135, respectively). Hepatic and serum triglyceride levels were measured from a commercially available kit (abcam65336). Liver samples were fixed in 4% paraformaldehyde and embedded in paraffin blocks for sectioning and subsequently stained with hematoxylin and eosin (H&E) or Picrosirius Red with a fast green dye background. Frozen fresh liver tissue was embedded in OCT, sectioned, and subsequently stained with Oil Red O.

PPAR signaling pathway = assay: RNA sequencing, qPCR and western blot of liver samples from CDAHFD late stage NAFLD/NASH mice; type: in vivo, C57BL/6 male mice
Procedure: as §1
Liver samples were collected from mice in Example 3 (see above). Total RNA was extracted from liver tissues (Qiagen RNeasy kit), cDNA libraries were constructed (Roche KAPA HyperPrep kit), sequenced on the NovaSeq6000 platform (Novogene), and a downstream analysis pipeline was performed. Differentially expressed genes (DEGs) were defined by at least one log2-fold change (2-fold in linear scale) with an FDR cutoff of 0.05. For validation, total RNA was used to prepare cDNA (BioRAD iScript™ Reverse Transcription) according to manufacturer's protocol and quantitative polymerase chain reaction (qPCR) was performed with fast SYBR Green Mix (ThermoFisher) on the QuantStudio6 System (Applied Biosystems). Protein expression levels were measured by western blot using antibodies against very low density lipoprotein receptor (VLDLR) (AF2258, 1:2000) and btubulin (CST2146, 1:1000). Membranes were developed using a horse radish peroxidase (HRP) secondary antibody (1:5000) and visualized using an enhanced chemiluminescent HRP substrate (Thermo34577).

[2] = system: CDAHFD diet-induced NAFLD/NASH in wild-type mice; assay: TOFA in wild-type mice on CDAHFD (comparison to PPARA KO); type: in vivo, C57BL/6J (WT) mice
Procedure: Six-week-old genetic PPARA knockout (PPARA KO) male mice were fed with a L-amino acid diet with 60 kcal % fat with 0.1% methionine and no added choline (CDAHFD; Research Diets A06071302i) for three weeks or fed with a 60 kcal % fat diet (DIO; Research Diets A12492i) for eight weeks before introduction of either vehicle (control) or 125 mg/kg of TOFA, BID, via oral gavage for an additional two weeks (FIG. 11A and FIG. 11J, respectively). C57BL/6J (WT) mice were fed with the CDAHFD and underwent similar experimental conditions and time course. Mice weights and adverse events were monitored during the treatment time course. Upon study termination, serum and liver samples were collected. Serum liver damage biomarkers, ALT and AST, were measured by commercially available kits (abcam105134 and abcam 105135, respectively). Hepatic and serum triglyceride levels were measured from a commercially available kit (abcam65336). […] Quantitative PCR (qPCR) was performed with fast SYBR Green Mix (ThermoFisher A25742) on the QuantStudio6 System (Applied Biosciences). Protein expression levels of liver samples were measured by western blot using antibodies against ACC1/2 (CST3662, 1:1000), VLDLR (AF2258, 1:2000), CPT1A (CST12252, 1:1000), PPARA (abcam126285, 1:1000) and beta-tubulin (CST2146, 1:1000). […]

[3] = system: 60% kcal fat diet induced metabolic syndrome and early stage NAFLD in mice; assay: Rescue effect of TOFA in 60% kcal fat diet induced early-stage hepatic steatosis and associated metabolic disorders; type: in vivo, C57BL/6 male mice
Procedure: Six-week-old C57BL/6 male mice were fed with a 60 kcal % fat diet (Research Diets A12492i) for seven weeks before introduction of either vehicle (control) or 250 mg/kg initial loading dose of TOFA daily via twice daily oral gavage for one week (FIG. 2A). Mice were then treated with either vehicle (control) or 125 mg/kg maintenance dose of TOFA daily via twice daily gavage for three additional weeks. Mice weights were tracked during the entire time course. After three weeks of treatment, an intraperitoneal glucose tolerance test (IP-GTT) and insulin tolerance test (IP-ITT) were performed. Prior to these tests, mice were fasted for six hours before a challenge of either 1 g/kg D-glucose or 0.75 U/kg HumulinR (Eli Lilly) and blood glucose levels were monitored for two hours (Bayer Contour Next). Venous fasting blood was collected through the tail vein and used to measure fasting insulin levels by commercially available ELISA kits (CrystalChem90080). Prior to harvest, mice underwent whole body composition analysis (EchoMRI™ 2012). Upon study termination at 11 weeks, serum and liver samples were collected. Serum liver damage biomarkers, ALT and AST, were measured by commercially available kits (abcam 105134 and abcam105135, respectively). Hepatic and serum triglyceride levels were measured from a commercially available kit (abcam65336).

[4] = scored per Kleiner, et al. (2005)
[5] = liver samples of Example 3, RNA-seq
[6] = 250 mg/kg daily 1 week then 125 mg/kg daily 3 weeks, twice daily oral gavage

In the case of `CCCCCCCCCCCCCCOc1ccc(C(=O)O)o1` [TOFA, 5-(Tetradecyloxy)-2-furoic acid], the “cytoplasmic vacuolations by H&E staining” value ([1]; liver sections) is reported as “decreased cytoplasmic vacuolations”, the “fibrosis by Picrosirius Red staining” value ([1]; liver sections) is reported as “decreased fibrosis” and the “lipid content by Oil Red O staining” value ([1]; liver sections) is reported as “reduction in lipid content”. For the same compound, the “ballooning (histopathological score)” value [1, 4] was “reductions”, the “degree of hepatic steatosis (histopathological score)” value [1, 4] was “decreased degree of hepatic steatosis” and the “fibrosis (histopathological score)” value [1, 4] was “reductions”. The “inflammation (histopathological score)” value [1, 4] was “reductions”, the liver triglyceride content ([1]; twice daily oral gavage) was “reduced” and the “serum ALT activity levels” value ([1]; twice daily oral gavage) was “significant decrease”. For the same compound, the “serum AST levels” value ([1]; twice daily oral gavage) was “averaged reduction”, the serum triglyceride levels ([1]; twice daily oral gavage) was “no increase” and the “protein expression levels of VLDLR (western blot)” value (PPAR signaling pathway; liver samples of Example 3) was “increase in protein expression levels”. For the same compound, the “GSEA: inflammatory response” value (PPAR signaling pathway; [5]) was “negative correlation”, the “GSEA: oxidative phosphorylation, fatty acid metabolism, peroxisomes” value (PPAR signaling pathway; [5]) was “significantly upregulated” and the “genes of the PPAR signaling pathway (2021 KEGG human database)” value (PPAR signaling pathway; [5]) was “upregulated various genes under PPAR transcriptional control”. The “expression of VLDLR gene (mRNA, qPCR)” value (PPAR signaling pathway; liver samples of Example 3, relative to r18S mRNA) was “significant increase”, the “highest upregulated genes (RNA-seq of liver)” value (PPAR signaling pathway; liver samples of Example 3, FDR cutoff 0.05, 2-fold change) was “canonical PPAR-alpha target genes” and the “Cpt1a mRNA (RT-qPCR)” value ([2]; 125 mg/kg BID, two weeks) was “induction of Cpt1a mRNA”. For the same compound, the “protein expression levels of CPT1A, VLDLR, and ACC1 (western blot)” value ([2]; relative to vehicle control) was “increased”, the body weight [3, 6] was “weight loss compared to the vehicle control treated mice” and the “fat mass relative to whole body weight (EchoMRI)” value [3, 6] was “significant reduction of fat mass”. The food intake [3, 6] was “without impacting food intake”, the “lean mass relative to whole body weight (EchoMRI)” value [3, 6] was “increase in lean mass” and the “fasting blood glucose levels” value ([3]; after three weeks of treatment, 6 h fast) was “vast improvements”. The “insulin tolerance test (IP-ITT)” value ([3]; after three weeks of treatment, 6 h fast, 0.75 U/kg HumulinR) was “improved insulin sensitivity”, the “intraperitoneal glucose tolerance test (IP-GTT)” value ([3]; after three weeks of treatment, 6 h fast, 1 g/kg D-glucose) was “more glucose tolerant” and the fasting insulin levels ([3]; after three weeks of treatment, ELISA) was “significantly lower”. The “hepatic levels of triglycerides” value ([3]; study termination at 11 weeks) was “significantly reduced”, the “serum ALT” value ([3]; study termination at 11 weeks) was “no significant changes” and the “serum AST” value ([3]; study termination at 11 weeks) was “no significant changes”. The “serum levels of triglycerides” value ([3]; study termination at 11 weeks) was “significantly reduced”.
